In patent US5886051A, “Methods and compositions for the treatment of neurodegeneration” (University Of Florida Research Foundation, Inc., priority 1995, dated 1999):

Tested on: N-methyl-D-aspartate receptor complex
Assay: [3H]MK-801 binding to rat cortical membranes with excess L-glutamate and glycine, modulated by polyamines
Conditions: for [3H]MK-801 binding relative to "100% Control": 100 μM L-Glu, 100 μM Gly, 2 nM [3H]MK-801, mean ± SD; for effect on [3H]MK-801 binding: at 100 μm; for concentration above which the polyamine is antagonistic: piperidine polyamines, tested 0.05-1,000 μM
Excerpt: Data are plotted as means ±standard deviation for four separate experiments on each tetraamine: (--.tangle-solidup.--) SPM (n=4), (.largecircle.) DMNSPM (n=4), (.circle-solid.) DMHSPM (n=4), (.rect-hollow.) DENSPM (n=4), (.box-solid.) DEHSPM (N=4), (.increment.) DBHSPM (n=4) and (--.tangle-solidup.--) BAHSPM (n=4).
Cerebral cortices from young male Sprague-Dawley rats (200-300 g) were homogenized with 10 volumes of ice-cold 0.32M sucrose using a motor-driven glass/Teflon homogenizer. The homogenate was centrifuged at 1,000 g for 10 minutes. The 1,000 g pellet was re-suspended in buffer A (5 mM Tris-HCl, pH 7.7 at 4° C.) and centrifuged at 8,000 g for 20 minutes. The supernatant and upper buffy coat of the pellet were combined and centrifuged at 50,000 g for 20 minutes. The pellet was then re-suspended in 10 volumes of buffer A and homogenized using high-intensity ultrasound and centrifuged at 50,000 g, discarding the supernatant. The pellet was washed in this manner an additional three times and stored as a frozen suspension at […] for at least 18 hours, but no longer than two weeks, before use.
For binding experiments, frozen membranes were thawed, pelleted at 50,000 g for 20 minutes and washed as described above, except that 20 volumes of buffer A were used for re-suspension, for a total of five times. The final pellet was re-suspended in buffer B (5 mM Tris-HCl, pH 7.5 at 23° C.).
Binding assays were performed in triplicate at 23° C. for 1 hour and were terminated by filtration through Whatman GF/B glass fiber filters followed by three 5.0 ml rinses of ice-cold buffer B using a Brandel M-48 cell harvester.

| SMILES | [3H]MK-801 binding relative to "100% Control" (1 μM tetraamine) [%] | [3H]MK-801 binding relative to "100% Control" (10 μM tetraamine) [%] | also measured |
| --- | --- | --- | --- |
| CC(C)(C)NCCCCNCCCCNCCCCNC(C)(C)C [DBHSPM] | 106.5±8.0 | 33.0±4.0 |  |
| CCNCCCCNCCCCNCCCCNCC [DEHSPM, diethylhomospermine] | 114.3±4.5 | 53.9±6.0 |  |
| CCNCCCNCCCNCCCNCC [DENSPM] | 113.7±5.9 | 63.7±5.9 |  |
| CNCCCCNCCCCNCCCCNC [DMHSPM] | 117.8±8.1 | 76.3±7.0 |  |
| CNCCCNCCCNCCCNC [DMNSPM] | 120.6±3.1 | 87.9±6.0 |  |
| C(CNC1CCNCC1)CNC1CCNCC1 [PIP[3,3,3]] |  |  | effect on [3H]MK-801 binding: still agonistic |
| C(CCNC1CCNCC1)CNC1CCNCC1 [PIP[3,4,3]] |  |  | effect on [3H]MK-801 binding: agonistic |
| C(CCNCC1CCNCC1)CNCC1CCNCC1 [PIP[4,4,4], N,N'-1,4-Butanediylbis(4-piperidinemethanamine)] |  |  | concentration above which the polyamine is antagonistic: above 12 μm |
| C(CCNCCC1CCNCC1)CNCCC1CCNCC1 [PIP[5,4,5], N,N'-1,4-Butanediylbis(4-piperidineethanamine)] |  |  | concentration above which the polyamine is antagonistic: above 13 μm |
| Cl.Cl.Cl.Cl.NCCCNCCCCNCCCN [SPM, Spermine tetrahydrochloride, reference compound] | 123.2±5.0 |  | [3H]MK-801 binding relative to "100% Control" (500 μM tetraamine): 82.0±8.1%; [3H]MK-801 binding relative to "100% Control" (1,000 μM tetraamine, 1000 µM): 78.9±8.3%; effect on [3H]MK-801 binding relative to "100% Control" (at 500 and 1,000 μM): moderate antagonism |
